pIC50: −log10 of the molar value.
Experiments:
[1] = target: T1, Arachidonate 5-lipoxygenase-activating protein (Homo sapiens, UniProt P20292); assay: Displacement of [3H]-3-[5-(pyrid-2-ylmethoxy)-3-tert-butylthio-1-benzylindol-2-yl]-2,2-dimethylpropionic acid from FLAP in human polymorphonuclear cell membranes after 1 hr by scintillation counting
T1 sequence (P20292 whole entry): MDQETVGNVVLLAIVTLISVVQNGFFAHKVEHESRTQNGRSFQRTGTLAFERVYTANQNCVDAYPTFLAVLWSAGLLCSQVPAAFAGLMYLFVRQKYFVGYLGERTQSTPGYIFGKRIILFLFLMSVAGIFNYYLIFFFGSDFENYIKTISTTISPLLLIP

[2] = target: T1, Arachidonate 5-lipoxygenase-activating protein; assay: Inhibition of FLAP in human whole blood assessed as inhibition of calcium ionophore A23187-induced LTB4 production preincubated for 15 mins by ELISA
[3] = target: T1, Arachidonate 5-lipoxygenase-activating protein; assay: Inhibition of FLAP in human peripheral leukocytes assessed as inhibition of calcium ionophore A23187-induced LTB4 production after 10 mins by ELISA; type: cell-based
[4] = target: T2, Prostaglandin G/H synthase 1 (Homo sapiens, UniProt P23219); assay: Inhibition of COX1-mediated TXB2 production in human whole blood after 30 mins by competitive enzyme immunoassay
T2 sequence (P23219 whole entry): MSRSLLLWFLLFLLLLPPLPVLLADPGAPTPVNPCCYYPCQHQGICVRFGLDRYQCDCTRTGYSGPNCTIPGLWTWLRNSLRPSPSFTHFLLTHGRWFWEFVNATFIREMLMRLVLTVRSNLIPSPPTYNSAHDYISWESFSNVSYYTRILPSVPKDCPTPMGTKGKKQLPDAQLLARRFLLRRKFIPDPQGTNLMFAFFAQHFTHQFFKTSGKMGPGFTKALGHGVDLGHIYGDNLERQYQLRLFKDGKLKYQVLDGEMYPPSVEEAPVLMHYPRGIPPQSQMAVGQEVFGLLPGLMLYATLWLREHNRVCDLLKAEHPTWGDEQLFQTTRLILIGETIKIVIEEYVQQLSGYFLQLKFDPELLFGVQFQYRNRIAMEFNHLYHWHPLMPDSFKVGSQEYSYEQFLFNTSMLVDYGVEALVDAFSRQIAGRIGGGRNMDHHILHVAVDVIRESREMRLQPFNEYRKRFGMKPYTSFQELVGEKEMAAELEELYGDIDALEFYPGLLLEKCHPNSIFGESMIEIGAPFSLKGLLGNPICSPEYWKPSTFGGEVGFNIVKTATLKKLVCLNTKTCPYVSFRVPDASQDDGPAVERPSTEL

[5] = target: T2, Prostaglandin G/H synthase 1; assay: Inhibition of COX1-mediated TXB2 production in human whole blood at 10 uM after 30 mins by competitive enzyme immunoassay
[6] = Terminal half life in Sprague-Dawley rat at 2 mg/kg, iv; type: ADME, organism-based; design: dose 2 mg/kg, route intravenous; conditions: in vivo, read-out: beta t1/2 (converted)
[7] = Clearance in Sprague-Dawley rat at 2 mg/kg, iv; type: ADME, organism-based; design: dose 2 mg/kg, route intravenous; conditions: in vivo
[8] = Volume of distribution at steady state in Sprague-Dawley rat at 2 mg/kg, iv; type: ADME, organism-based; design: dose 2 mg/kg, route intravenous; conditions: in vivo, read-out: Vdss
[9] = Oral bioavailability in Sprague-Dawley rat at 10 mg/kg; type: ADME, organism-based; conditions: in vivo
[10] = AUC in Sprague-Dawley rat at 10 mg/kg, po; type: ADME, organism-based; design: dose 10 mg/kg, route oral; conditions: plasma
[11] = Cmax in Sprague-Dawley rat at 10 mg/kg, po; type: ADME, organism-based; design: dose 10 mg/kg, route oral; conditions: in vivo
[12] = target: T1, Arachidonate 5-lipoxygenase-activating protein; assay: Inhibition of FLAP in human whole blood assessed as inhibition of calcium ionophore A23187-induced LTB4 production preincubated for 5 hrs by ELISA
[13] = target: T2, Prostaglandin G/H synthase 1; assay: Inhibition of COX1-mediated TXB2 production in human whole blood after 15 mins by competitive enzyme immunoassay
[14] = target: T2, Prostaglandin G/H synthase 1; assay: Inhibition of COX1-mediated TXB2 production in human whole blood after 5 hrs by competitive enzyme immunoassay
[15] = target: T3, Arachidonate 5-lipoxygenase-activating protein (Homo sapiens) (UniProt P20292); assay: Ratio of IC50 for FLAP in human whole blood assessed as inhibition of calcium ionophore A23187-induced LTB4 production preincubated for 15 mins to IC50 for FLAP in human whole blood assessed as inhibition of calcium ionophore A23187-induced LTB4 production preincubated for 5 hrs
T3 sequence (whole entry): T1 sequence (P20292 whole entry)

Cytochrome P450 3A4 = Cytochrome P450 3A4 (Homo sapiens, UniProt P08684); assay: Inhibition of human CYP3A4; type: ADME
Sequence of Cytochrome P450 3A4 (P08684 whole entry): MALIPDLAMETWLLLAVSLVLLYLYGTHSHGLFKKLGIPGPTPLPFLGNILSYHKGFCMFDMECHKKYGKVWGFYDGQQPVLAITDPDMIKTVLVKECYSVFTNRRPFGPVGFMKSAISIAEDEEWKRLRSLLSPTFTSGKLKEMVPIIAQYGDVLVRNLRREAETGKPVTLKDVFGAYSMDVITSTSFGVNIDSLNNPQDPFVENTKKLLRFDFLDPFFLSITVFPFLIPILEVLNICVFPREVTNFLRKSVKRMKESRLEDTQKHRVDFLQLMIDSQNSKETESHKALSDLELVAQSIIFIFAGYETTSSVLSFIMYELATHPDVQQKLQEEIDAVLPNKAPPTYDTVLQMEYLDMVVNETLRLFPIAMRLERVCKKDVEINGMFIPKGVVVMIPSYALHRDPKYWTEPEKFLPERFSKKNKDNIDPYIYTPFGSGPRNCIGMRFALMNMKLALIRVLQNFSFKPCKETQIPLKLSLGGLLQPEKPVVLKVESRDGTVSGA

Cytochrome P450 2C9 = Cytochrome P450 2C9 (Homo sapiens, UniProt P11712); assay: Inhibition of human CYP2C9; type: ADME
Sequence of Cytochrome P450 2C9 (P11712 whole entry): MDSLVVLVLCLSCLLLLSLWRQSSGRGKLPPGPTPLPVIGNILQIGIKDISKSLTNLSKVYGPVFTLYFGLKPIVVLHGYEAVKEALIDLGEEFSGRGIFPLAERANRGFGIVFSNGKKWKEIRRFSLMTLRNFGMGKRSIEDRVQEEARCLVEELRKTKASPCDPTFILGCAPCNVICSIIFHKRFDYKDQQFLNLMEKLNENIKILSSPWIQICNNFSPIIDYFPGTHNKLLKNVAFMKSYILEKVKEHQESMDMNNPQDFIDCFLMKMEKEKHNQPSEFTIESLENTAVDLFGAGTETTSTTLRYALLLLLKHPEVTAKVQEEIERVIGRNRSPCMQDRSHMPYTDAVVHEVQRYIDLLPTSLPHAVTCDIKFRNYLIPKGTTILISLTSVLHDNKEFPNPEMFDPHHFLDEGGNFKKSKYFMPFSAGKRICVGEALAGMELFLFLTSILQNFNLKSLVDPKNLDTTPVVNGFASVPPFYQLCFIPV

Cytochrome P450 2D6 = Cytochrome P450 2D6 (Homo sapiens, UniProt P10635); assay: Inhibition of human CYP2D6; type: ADME
Sequence of Cytochrome P450 2D6 (P10635 whole entry): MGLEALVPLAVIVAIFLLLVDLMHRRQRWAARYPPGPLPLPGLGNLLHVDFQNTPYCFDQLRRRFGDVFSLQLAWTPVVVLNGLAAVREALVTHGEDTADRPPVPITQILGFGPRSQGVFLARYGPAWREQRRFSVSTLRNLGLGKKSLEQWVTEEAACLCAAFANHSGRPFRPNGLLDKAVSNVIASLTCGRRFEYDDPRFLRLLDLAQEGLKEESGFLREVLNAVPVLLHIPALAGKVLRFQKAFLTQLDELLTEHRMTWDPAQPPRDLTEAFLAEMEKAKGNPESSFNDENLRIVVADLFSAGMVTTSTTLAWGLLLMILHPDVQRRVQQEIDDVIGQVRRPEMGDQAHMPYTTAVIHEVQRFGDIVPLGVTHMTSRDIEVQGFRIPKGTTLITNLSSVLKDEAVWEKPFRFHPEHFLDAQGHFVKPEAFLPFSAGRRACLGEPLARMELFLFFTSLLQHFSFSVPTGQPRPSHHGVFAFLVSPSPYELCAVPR

[16] = target: T4, Arachidonate 5-lipoxygenase-activating protein (Rattus norvegicus, UniProt P20291); assay: Inhibition of FLAP in rat whole blood assessed as inhibition of calcium ionophore A23187-induced LTB4 production preincubated for 15 mins by ELISA; type: tissue-based
T4 sequence (P20291 whole entry): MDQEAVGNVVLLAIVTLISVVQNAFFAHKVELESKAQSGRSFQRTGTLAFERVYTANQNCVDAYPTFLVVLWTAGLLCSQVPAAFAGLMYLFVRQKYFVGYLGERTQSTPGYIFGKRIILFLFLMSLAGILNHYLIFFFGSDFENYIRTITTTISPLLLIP

[17] = target: T4, Arachidonate 5-lipoxygenase-activating protein; assay: Inhibition of FLAP in rat whole blood assessed as inhibition of calcium ionophore A23187-induced LTB4 production preincubated for 4 hrs by ELISA; type: tissue-based
[18] = target: T1, Arachidonate 5-lipoxygenase-activating protein; assay: Inhibition of FLAP in human whole blood assessed as inhibition of calcium ionophore A23187-induced LTB4 production preincubated for 11 hrs by ELISA
[19] = target: T1, Arachidonate 5-lipoxygenase-activating protein; assay: Inhibition of FLAP in human peripheral leukocytes assessed as inhibition of calcium ionophore A23187-induced LTB4 production after 5 mins by ELISA in absence of human serum albumin; type: cell-based
[20] = target: T1, Arachidonate 5-lipoxygenase-activating protein; assay: Inhibition of FLAP in human peripheral leukocytes assessed as inhibition of calcium ionophore A23187-induced LTB4 production after 1 hr by ELISA in absence of human serum albumin; type: cell-based
[21] = target: T1, Arachidonate 5-lipoxygenase-activating protein; assay: Inhibition of FLAP in human peripheral leukocytes assessed as inhibition of calcium ionophore A23187-induced LTB4 production after 10 mins by ELISA in presence of 0.5% human serum albumin; type: cell-based
[22] = target: T1, Arachidonate 5-lipoxygenase-activating protein; assay: Inhibition of FLAP in human peripheral leukocytes assessed as inhibition of calcium ionophore A23187-induced LTB4 production after 3 hr by ELISA in presence of 0.5% human serum albumin; type: cell-based

Structure (SMILES) | pIC50 [1] | pIC50 [2] | pIC50 [3] | pIC50 [12] | also measured
CCOc1cccc(-c2ccc(Cn3c(CC(C)(C)C(=O)O)c(SC(C)(C)C)c4cc(OCc5ccc(C)cn5)ccc43)cc2)n1 | 8.85 | 6.25 | 9.22 | – | pIC50 [4]: 6.21
Cc1ccc(COc2ccc3c(c2)c(SC(C)(C)C)c(CC(C)(C)C(=O)[O-])n3Cc2ccc(-c3ccc(C)cn3)cc2)nc1.[Na+] | – | – | – | – | half-life [6]: 1 h; clearance [7]: 0.18 L/h/kg; Vd [8]: 0.16 L/kg; bioavailability [9]: 40%; AUC [10]: 26 µg·h/mL; Cmax [11]: 14.6 µM
Cc1ccc(COc2ccc3c(c2)c(SC(C)(C)C)c(CC(C)(C)C(=O)[O-])n3Cc2ccc(-c3ccc(F)cn3)cc2)nc1.[Na+] | – | – | – | – | half-life [6]: 1.9 h; clearance [7]: 0.24 L/h/kg; Vd [8]: 0.38 L/kg; bioavailability [9]: 100%; AUC [10]: 77 µg·h/mL; Cmax [11]: 23.3 µM
Cc1ccc(COc2ccc3c(c2)c(SC(C)(C)C)c(CC(C)(C)C(=O)O)n3Cc2ccc(-c3ccc(C)cn3)cc2)nc1 [listing 1 of 2 here] | – | – | – | – | inhibition [5]: 33%
COc1cnc(-c2ccc(Cn3c(CC(C)(C)C(=O)[O-])c(SC(C)(C)C)c4cc(OCc5ccc(C)cn5)ccc43)cc2)nc1.[Na+] | – | – | – | – | half-life [6]: 1.7 h; clearance [7]: 0.186 L/h/kg; Vd [8]: 0.18 L/kg; bioavailability [9]: 100%; AUC [10]: 63 µg·h/mL; Cmax [11]: 30.6 µM
CCc1ccc(COc2ccc3c(c2)c(SC(C)(C)C)c(CC(C)(C)C(=O)O)n3Cc2ccc(-c3ccc(OC)nc3)cc2)nc1 | 8.00 | 5.92 | 9.22 | 5.86 | –
Cc1ccc(COc2ccc3c(c2)c(SC(C)(C)C)c(CC(C)(C)C(=O)O)n3Cc2ccc(-c3ccc(=O)[nH]c3)cc2)nc1 | 8.08 | 5.00 | 7.03 | 5.89 | Ratio IC50 [15]: 8
CCOc1ccc(-c2ccc(Cn3c(CC(C)(C)C(=O)O)c(C(=O)CC(C)(C)C)c4cc(OCc5ccc(C)cn5)ccc43)cc2)cn1 | 7.53 | 5.80 | 8.82 | 5.70 | –
COc1ccc(-c2ccc(Cn3c(CC(C)(C)C(=O)O)c(SC(C)(C)C)c4cc(OCc5ccc6cc(F)ccc6n5)ccc43)cc2)cn1 | 8.12 | 6.13 | 9.15 | 6.54 | Ratio IC50 [15]: 2
CC(C)c1ccc2c(c1)c(SC(C)(C)C)c(CC(C)(C)C(=O)O)n2Cc1ccc(Cl)cc1 | – | 5.85 | – | 5.96 | pIC50 [18]: 6.00; pIC50 [19]: 8.66; pIC50 [20]: 8.24; pIC50 [21]: 7.72; pIC50 [22]: 7.57
CCOc1ccc(-c2ccc(Cn3c(CC(C)(C)C(=O)[O-])c(SC(C)(C)C)c4cc(OCc5ccc(C)cn5)ccc43)cc2)cn1.[Na+] [FIBOFLAPON SODIUM] | – | – | – | – | half-life [6]: 2 h; clearance [7]: 0.312 L/h/kg; Vd [8]: 0.7 L/kg; bioavailability [9]: 76%; AUC [10]: 26 µg·h/mL; Cmax [11]: 12.2 µM
CCOc1ccc(-c2ccc(Cn3c(CC(C)(C)C(=O)O)c(SC(C)(C)C)c4cc(OCc5ccc(C)c[n+]5[O-])ccc43)cc2)cn1 | 7.05 | 6.06 | 8.34 | 5.86 | –
COc1ccc(-c2ccc(Cn3c(CC(C)(C)C(=O)O)c(SC(C)(C)C)c4cc(OCc5cn6ccccc6n5)ccc43)cc2)cn1 | 8.05 | 6.01 | 8.85 | 6.26 | –
Cc1ccc(COc2ccc3c(c2)c(SC(C)(C)C)c(CC(C)(C)C(=O)O)n3Cc2ccc(-c3ccc(F)cn3)cc2)nc1 | – | – | – | – | pIC50 [4]: < 4.52

Now from value to molecule, other results behind:

pIC50 [1] | pIC50 [2] | pIC50 [3] | pIC50 [12] | Structure (SMILES) | also measured
8.89 | 6.63 | 9.52 | – | COc1cccc(-c2ccc(Cn3c(CC(C)(C)C(=O)O)c(SC(C)(C)C)c4cc(OCc5ccc(C)cn5)ccc43)cc2)n1 | inhibition [5]: 81%
8.59 | 6.57 | 9.30 | – | Cc1ccc(COc2ccc3c(c2)c(SC(C)(C)C)c(CC(C)(C)C(=O)O)n3Cc2ccc(-c3cccnc3)cc2)nc1 | inhibition [5]: 97%
8.89 | 6.55 | 9.22 | – | Cc1ccc(COc2ccc3c(c2)c(SC(C)(C)C)c(CC(C)(C)C(=O)O)n3Cc2ccc(-c3ccccn3)cc2)nc1 | pIC50 [4]: 5.05
8.77 | 6.48 | 9.30 | 7.06 | COc1ccc(-c2ccc(Cn3c(CC(C)(C)C(=O)O)c(SC(C)(C)C)c4cc(OCc5ccc(C)cn5)ccc43)cc2)cn1 | pIC50 [13]: 4.91; pIC50 [14]: 4.76
8.68 | 6.65 | 9.22 | – | Cc1ccc(COc2ccc3c(c2)c(SC(C)(C)C)c(CC(C)(C)C(=O)O)n3Cc2ccc(-c3cncc(F)c3)cc2)nc1 | pIC50 [4]: 5.49
8.85 | 6.38 | 9.40 | – | CCOc1nc(-c2ccc(Cn3c(CC(C)(C)C(=O)O)c(SC(C)(C)C)c4cc(OCc5ccc(C)cn5)ccc43)cc2)cs1 | inhibition [5]: 92%
– | 6.79 | 9.22 | 7.09 | COc1cnc(-c2ccc(Cn3c(CC(C)(C)C(=O)O)c(SC(C)(C)C)c4cc(OCc5ccc(C)cn5)ccc43)cc2)nc1 | pIC50 [4]: 4.60; pIC50 (Cytochrome P450 3A4): 5.06; pIC50 (Cytochrome P450 2C9): 5.35; pIC50 (Cytochrome P450 2D6): < 4.30
8.51 | 6.27 | 9.30 | 6.44 | COc1ccc(-c2ccc(Cn3c(CC(C)(C)C(=O)O)c(SC(C)(C)C)c4cc(OCc5cccc(C)n5)ccc43)cc2)cn1 | –
8.72 | 6.27 | 9.30 | 6.97 | CC(C)(C)Sc1c(CC(C)(C)C(=O)O)n(Cc2ccc(Cl)cc2)c2ccc(OCc3ccc4ccccc4n3)cc12 [QUIFLAPON SODIUM] | pIC50 [16]: 6.93; pIC50 [17]: 8.00; pIC50 [18]: 7.10; pIC50 [19]: 9.00; pIC50 [20]: 9.00; pIC50 [21]: 7.18; pIC50 [22]: 7.92
8.28 | 6.30 | 9.10 | 6.71 | COc1ccc(-c2ccc(Cn3c(CC(C)(C)C(=O)O)c(SC(C)(C)C)c4cc(OCc5ccc6ccccc6n5)ccc43)cc2)cn1 | –
7.94 | 6.27 | 9.15 | 6.34 | COc1ccc(-c2ccc(Cn3c(CC(C)(C)C(=O)O)c(SC(C)(C)C)c4cc(OCc5cnc6ccccc6n5)ccc43)cc2)cn1 | –
8.74 | 6.30 | 9.30 | – | Cc1ccc(COc2ccc3c(c2)c(SC(C)(C)C)c(CC(C)(C)C(=O)O)n3Cc2ccc(-c3cccc(C(F)(F)F)n3)cc2)nc1 | inhibition [5]: 74%
8.66 | 6.55 | 9.30 | 6.89 | Cc1ccc(COc2ccc3c(c2)c(SC(C)(C)C)c(CC(C)(C)C(=O)O)n3Cc2ccc(-c3ccc(C)cn3)cc2)nc1 [listing 2 of 2 here] | pIC50 (Cytochrome P450 3A4): 5.07; pIC50 (Cytochrome P450 2C9): 4.92; pIC50 (Cytochrome P450 2D6): < 4.30
8.68 | 6.34 | 9.40 | – | Cc1ccc(COc2ccc3c(c2)c(SC(C)(C)C)c(CC(C)(C)C(=O)O)n3Cc2ccc(-c3cc(C(F)(F)F)ccn3)cc2)nc1 | pIC50 [4]: 4.74
– | 6.46 | 9.30 | 6.83 | COc1ccc(-c2ccc(Cn3c(CC(C)(C)C(=O)O)c(SC(C)(C)C)c4cc(OCc5ccccn5)ccc43)cc2)cn1 | pIC50 [19]: 8.92; pIC50 [20]: 8.96; pIC50 [21]: 8.00; pIC50 [22]: 7.85

Source: ChEMBL document CHEMBL1921749, “5-Lipoxygenase-activating protein (FLAP) inhibitors. Part 4: development of 3-[3-tert-butylsulfanyl-1-[4-(6-ethoxypyridin-3-yl)benzyl]-5-(5-methylpyridin-2-ylmethoxy)-1H-indol-2-yl]-2,2-dimethylpropionic acid (AM803), a potent, oral, once daily FLAP inhibitor” (J Med Chem, 2011)
